Assay results: US10369130B2, “Antibacterial compounds” (AZIENDE CHIMICHE RIUNITE ANGELINI FRANCESCO A.C.R.A.F. …, priority 2014, dated 2019)
Structures can show the parent of a compound that is named as a salt.

Key:
Type in all cases: biochemical
Conditions in all cases: single concentration (200, 100 or 50 μM), in duplicate, versus the positive control (vehicle)
DNA gyrase [1] = target: T1, DNA gyrase (Escherichia coli, UniProt P0AES4+P0AES6); experiment: DNA gyrase supercoiling assay (E. coli)
T1 construct: purchased Inspiralis, UK
T1 sequence (P0AES4 whole entry, one chain of several): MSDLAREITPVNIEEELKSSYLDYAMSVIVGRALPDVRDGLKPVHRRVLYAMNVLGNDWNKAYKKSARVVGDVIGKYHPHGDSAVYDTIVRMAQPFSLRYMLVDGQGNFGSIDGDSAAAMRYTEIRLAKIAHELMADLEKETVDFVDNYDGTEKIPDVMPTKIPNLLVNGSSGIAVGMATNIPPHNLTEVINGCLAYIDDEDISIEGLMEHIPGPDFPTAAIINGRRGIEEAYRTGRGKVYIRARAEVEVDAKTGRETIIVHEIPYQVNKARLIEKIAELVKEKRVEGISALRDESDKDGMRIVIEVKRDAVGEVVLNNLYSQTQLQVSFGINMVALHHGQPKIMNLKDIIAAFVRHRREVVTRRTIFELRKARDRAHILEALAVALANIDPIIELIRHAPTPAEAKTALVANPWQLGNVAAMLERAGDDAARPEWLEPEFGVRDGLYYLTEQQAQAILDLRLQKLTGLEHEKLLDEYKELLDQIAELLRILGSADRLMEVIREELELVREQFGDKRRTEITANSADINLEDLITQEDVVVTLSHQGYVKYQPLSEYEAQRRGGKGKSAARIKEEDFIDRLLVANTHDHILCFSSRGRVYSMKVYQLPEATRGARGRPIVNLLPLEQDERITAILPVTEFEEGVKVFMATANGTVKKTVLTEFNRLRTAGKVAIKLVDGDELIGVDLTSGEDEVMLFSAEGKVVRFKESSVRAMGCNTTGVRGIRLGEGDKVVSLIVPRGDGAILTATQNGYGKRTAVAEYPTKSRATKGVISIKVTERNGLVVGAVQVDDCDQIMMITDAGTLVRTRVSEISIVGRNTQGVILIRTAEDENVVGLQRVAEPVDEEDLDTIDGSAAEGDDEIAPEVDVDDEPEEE
Method: (§1) The above compounds were tested for the inhibition of the enzyme DNA gyrase in a gyrase supercoiling assay and for the inhibition of the enzyme topoisomerase IV in a decatenation assay, in both Gram positive and Gram negative bacteria, according to the following methods.
(§2) Both the assays were carried out according to a set-up method modified from the article to Blanche F, et al. “Differential Behaviors of Staphylococcus aureus and Escherichia coli Type II DNA Topoisomerases”, Antimicrob.
(§3) The compounds were screened at single concentration (200, 100 or 50 μM), in duplicate.
(§4) Ciprofloxacin and novobiocin were used as reference compounds, at single concentration of 200 and 50 μM, respectively.
(§5) DNA Gyrase Supercoiling Assay.
(§6) Reagents from S. aureus and E. coli Gyrase Supercoiling Assay kits (Inspiralis, UK) were used. A master mix with a total volume sufficient for the number of reactions to perform was prepared with the following reagents: 5× assay buffer, relaxed pBR322 substrate (0.5 μg/reaction), RNase-DNase free water. Aliquotes of this mix were dispensed in each tube, then 10× compound stock solutions or vehicle control (DMSO), were added to each reaction tube.
(§7) Reaction was started with E. Coli (2 U/reaction) or S. aureus (1 U/reaction) gyrase enzyme addition.
(§8) A sample added with an equal volume of dilution buffer was used as negative control (without enzyme).
(§9) The reaction tubes were gentle vortexed and incubated 30 minutes at 37° C. Each reaction was stopped by adding 30 μl of Stop Buffer and 30 μl chloroform/isoamyl alcohol (24/1), briefly vortexed for 5-10 seconds and centrifuged at 20000×g for 2 minutes. Samples were loaded onto 1% agarose gel and subjected to electrophoresis for 1 hour at 80V constant voltage in TAE (40 mM Tris-acetate, 2 mM EDTA).
(§10) Data acquisition and analysis. Treatment of relaxed pBR322 with DNA gyrase converted the relaxed topoisomers (DNAs of different linking number) to the supercoiled form of the plasmid, which migrates faster on an agarose gel. An upper band might also be visible, which consists of open-circular (nicked) DNA which is present in the relaxed substrate but co-migrates with some of the relaxed topoisomers.
(§11) Bands were visualized by ethidium bromide staining (dil 1:20000) for 30 minutes followed by destaining in distilled water for 10 minutes.
(§12) In order to evaluate the compounds activity on the enzyme, the bands of supercoiled DNAs in the gel were photographed by a digital imaging system ImageQuant LAS 4000 (GE Healthcare) according to manufacturer's instructions.
(§13) The fluorescent intensity of each band was analysed by ImageQuant TL software and it was expressed as volume (volume of the uncalibrated quantity of material in the image feature after subtraction of the background intensity by using rolling ball method).
(§14) Each band intensity was compared, as percentage, to vehicle sample band intensity, which served as positive control, on the same gel.
(§15) Inhibitory activity was expressed as percent of inhibition versus the positive control.

DNA gyrase [2] = target: T2, DNA gyrase (Staphylococcus aureus, UniProt P0A0K8+P20831); experiment: DNA gyrase supercoiling assay (S. aureus)
T2 construct: purchased Inspiralis, UK
Method: as §1, §2, §3, §4, §5, §6, §7, §8, §9, §10, §11, §12, §13, §14, §15

Topoisomerase IV [3] = target: T3, Topoisomerase IV (Staphylococcus aureus, UniProt P0C1S7+P0C1U9); experiment: Topoisomerase IV decatenation assay (S. aureus)
T3 construct: purchased Inspiralis, UK
T3 sequence (P0C1S7 whole entry): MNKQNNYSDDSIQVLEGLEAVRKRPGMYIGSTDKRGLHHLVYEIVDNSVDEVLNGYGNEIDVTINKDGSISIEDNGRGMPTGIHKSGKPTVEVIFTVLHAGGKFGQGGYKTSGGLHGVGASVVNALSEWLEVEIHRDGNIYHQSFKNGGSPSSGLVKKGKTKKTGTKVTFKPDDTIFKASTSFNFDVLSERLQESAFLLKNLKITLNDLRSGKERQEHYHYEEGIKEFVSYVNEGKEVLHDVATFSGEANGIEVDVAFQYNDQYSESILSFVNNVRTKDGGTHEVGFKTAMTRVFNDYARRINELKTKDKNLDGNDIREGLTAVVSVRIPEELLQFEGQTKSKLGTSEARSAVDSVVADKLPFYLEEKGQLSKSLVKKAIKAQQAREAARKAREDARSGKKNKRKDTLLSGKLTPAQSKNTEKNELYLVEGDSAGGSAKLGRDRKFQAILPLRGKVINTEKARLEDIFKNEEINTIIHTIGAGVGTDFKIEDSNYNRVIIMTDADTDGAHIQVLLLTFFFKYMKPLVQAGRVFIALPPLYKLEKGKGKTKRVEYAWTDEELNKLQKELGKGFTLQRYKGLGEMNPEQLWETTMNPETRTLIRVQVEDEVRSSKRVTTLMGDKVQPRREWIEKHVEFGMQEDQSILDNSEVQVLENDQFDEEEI
T3 sequence (P0C1U9 whole entry): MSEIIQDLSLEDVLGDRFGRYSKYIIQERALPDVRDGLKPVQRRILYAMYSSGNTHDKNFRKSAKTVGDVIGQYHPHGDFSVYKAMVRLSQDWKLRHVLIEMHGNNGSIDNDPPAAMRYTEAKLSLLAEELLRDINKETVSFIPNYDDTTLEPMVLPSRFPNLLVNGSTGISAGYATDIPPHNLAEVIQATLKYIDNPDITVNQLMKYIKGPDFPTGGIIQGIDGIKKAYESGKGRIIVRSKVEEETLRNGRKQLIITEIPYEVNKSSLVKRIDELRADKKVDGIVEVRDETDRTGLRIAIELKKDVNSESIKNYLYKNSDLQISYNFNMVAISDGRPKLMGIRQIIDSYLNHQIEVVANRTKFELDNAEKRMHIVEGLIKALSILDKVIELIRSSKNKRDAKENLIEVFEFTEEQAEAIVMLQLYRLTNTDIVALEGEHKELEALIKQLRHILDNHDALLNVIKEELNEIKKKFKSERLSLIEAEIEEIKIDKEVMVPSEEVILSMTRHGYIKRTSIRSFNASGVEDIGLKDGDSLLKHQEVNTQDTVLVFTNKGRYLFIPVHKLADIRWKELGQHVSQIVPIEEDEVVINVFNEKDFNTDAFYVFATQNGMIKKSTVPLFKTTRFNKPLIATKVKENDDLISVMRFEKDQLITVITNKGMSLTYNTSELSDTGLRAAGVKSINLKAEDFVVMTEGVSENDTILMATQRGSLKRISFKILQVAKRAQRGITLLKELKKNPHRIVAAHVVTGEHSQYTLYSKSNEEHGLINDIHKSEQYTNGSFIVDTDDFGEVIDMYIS
Method: as §1, §2, §3, §4
(§16) Topoisomerase IV Decatenation Assay
(§17) S. aureus and E. coli Topoisomerase IV decatenation kits (Inspiralis, UK) were used. A master mix with a total volume sufficient for the number of reactions to perform was prepared with the following reagents: 5× assay buffer (50 mM HEPES-KOH (pH 7.6), 100 mM potassium glutamate, 10 mM magnesium acetate, 10 mM DTT, 1 mM ATP, 50 μg/ml albumin), kDNA substrate (200 ng/reaction), RNase-DNase free water. Aliquots of this mix were dispensed in each tube, then 10× compound stock solutions or vehicle control (DMSO), were added in each reaction tube.
(§18) Reaction was started with Topoisomerase IV enzyme (0.5 U/reaction) addition.
as §8
(§19) The reaction tubes were gentle vortexed and incubated 30 minutes at 37° C. Each reaction was stopped by adding 30 μl of Stop Buffer and 30 μl of chloroform/isoamyl alcohol (24/1), briefly vortexed for 5-10 seconds and centrifuged at 20000×g for 2 minutes. Samples taken from the upper phase were loaded into 1% agarose gel and subjected to electrophoresis for 1 hour at 80V constant voltage in TAE (40 mM Tris-acetate, 2 mM EDTA).
(§20) Data acquisition and analysis. Due to the high molecular mass, kDNA could not enter an agarose gel under normal electrophoresis conditions, but remained in the wells. In the presence of Topo IV topoisomerase mini-circles (2.5 Kb) were released from kDNA by decatenation and were quickly and easily resolved in the gel at relatively high voltages.
as §11
(§21) For single concentration screening assay, in order to evaluate the compounds activity on the enzymes, the bands of decatenated DNAs in the gel were photographed by a digital imaging system ImageQuant LAS 4000 (GE Healthcare) according to manufacturer's instructions.
(§22) The fluorescent intensity of each band was analyzed by ImageQuant TL software and it was expressed as volume (volume of the uncalibrated quantity of material in the image feature after subtraction of the background intensity by using rolling ball method).
as §14, §15

Topoisomerase IV [4] = target: T4, Topoisomerase IV (Escherichia coli, UniProt P0AFI2+P20083); experiment: Topoisomerase IV decatenation assay (E. coli)
T4 construct: purchased Inspiralis, UK
T4 sequence (P20083 whole entry): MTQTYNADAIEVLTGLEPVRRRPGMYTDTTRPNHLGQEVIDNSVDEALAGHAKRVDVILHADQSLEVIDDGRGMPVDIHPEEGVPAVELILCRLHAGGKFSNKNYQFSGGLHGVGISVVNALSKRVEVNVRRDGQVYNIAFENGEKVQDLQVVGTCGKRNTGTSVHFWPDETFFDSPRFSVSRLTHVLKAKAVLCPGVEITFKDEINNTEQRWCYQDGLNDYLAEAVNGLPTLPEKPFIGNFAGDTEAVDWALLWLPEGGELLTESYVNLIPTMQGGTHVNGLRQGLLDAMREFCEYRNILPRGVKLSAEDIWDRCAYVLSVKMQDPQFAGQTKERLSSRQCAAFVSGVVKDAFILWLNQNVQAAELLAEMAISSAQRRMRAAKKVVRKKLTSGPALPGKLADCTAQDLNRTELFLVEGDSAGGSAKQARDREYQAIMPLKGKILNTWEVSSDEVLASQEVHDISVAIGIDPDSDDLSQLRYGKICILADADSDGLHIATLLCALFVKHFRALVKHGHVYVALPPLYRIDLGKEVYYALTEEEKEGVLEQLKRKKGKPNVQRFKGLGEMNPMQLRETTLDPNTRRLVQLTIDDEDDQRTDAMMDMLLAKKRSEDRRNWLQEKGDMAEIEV
T4 sequence (P0AFI2 whole entry): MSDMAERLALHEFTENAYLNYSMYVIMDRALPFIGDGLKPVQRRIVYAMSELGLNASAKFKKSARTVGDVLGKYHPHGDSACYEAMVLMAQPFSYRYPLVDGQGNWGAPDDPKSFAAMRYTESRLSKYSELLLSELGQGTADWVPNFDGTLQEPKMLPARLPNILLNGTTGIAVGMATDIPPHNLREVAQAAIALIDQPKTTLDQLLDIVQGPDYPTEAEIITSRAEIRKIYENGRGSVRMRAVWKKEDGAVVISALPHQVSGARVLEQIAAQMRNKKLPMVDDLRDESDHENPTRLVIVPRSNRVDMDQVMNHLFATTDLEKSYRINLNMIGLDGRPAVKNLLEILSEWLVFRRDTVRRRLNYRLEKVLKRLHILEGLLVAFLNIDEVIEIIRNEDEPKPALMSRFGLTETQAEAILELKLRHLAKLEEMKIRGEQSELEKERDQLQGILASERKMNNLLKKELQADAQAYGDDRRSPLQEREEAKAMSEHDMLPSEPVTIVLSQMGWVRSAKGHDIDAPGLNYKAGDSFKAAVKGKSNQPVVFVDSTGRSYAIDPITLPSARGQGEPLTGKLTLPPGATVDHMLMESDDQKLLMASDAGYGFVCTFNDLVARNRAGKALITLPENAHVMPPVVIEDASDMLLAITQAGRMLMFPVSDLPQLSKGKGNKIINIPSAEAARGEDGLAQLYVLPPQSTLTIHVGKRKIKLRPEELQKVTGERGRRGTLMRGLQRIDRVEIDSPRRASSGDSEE
Method: as §1, §2, §3, §4, §16, §17, §18, §8, §19, §20, §11, §21, §22, §14, §15

| SMILES | % inhibition DNA gyrase (DNA gyrase [1]) | % inhibition DNA gyrase (DNA gyrase [2]) | % inhibition Topo IV (Topoisomerase IV [3]) | % inhibition Topo IV (Topoisomerase IV [4]) |
| --- | --- | --- | --- | --- |
| O=C(NCCN1CCN(c2nccc3ccccc23)CC1)c1cc(=O)oc2ccccc12 [Compound 75, N-{2-[4-(isoquinolin-1-yl)piperazin-1-yl]ethyl}-2-oxo-2H-chromene-4-carboxamide hydrochloride] | 69% | 61% | n/a (n/a = not active) | n/a (n/a = not active) |
| COC(=O)C1CN(c2nccc3ccccc23)CCN1CCCNc1cc(=O)oc2ccccc12 (stereo not drawn) [Compound 81, methyl 4-(isoquinolin-1-yl)-1-{3-[(2-oxo-2H-chromen-4-yl)amino]propyl}piperazine-2-carboxylate hydrochloride] | 80% | n/a (n/a = not active) | n/a (n/a = not active) | n/a (n/a = not active) |
| O=C(O)C1CN(c2nccc3ccccc23)CCN1CCCNc1cc(=O)oc2ccccc12 (stereo not drawn) [Compound 82, 4-(isoquinolin-1-yl)-1-{3-[(2-oxo-2H-chromen-4-yl)amino]propyl}piperazine-2-carboxylic acid hydrochloride] | 85% | 82% | n/a (n/a = not active) | n/a (n/a = not active) |
| O=c1cc(NCCCN2CCN(c3nccc4ccccc34)CC2CC(F)(F)F)c2ccccc2o1 (stereo not drawn) [Compound 83, 4-({3-[4-(isoquinolin-1-yl)-2-(2,2,2-trifluoroethyl)piperazin-1-yl]propyl}amino)-2H-chromen-2-one hydrochloride] | 69% | n/a (n/a = not active) | n/a (n/a = not active) | n/a (n/a = not active) |
| COc1ccc2c(NCCCN3CCN(c4nccc5ccccc45)CC3)cc(=O)oc2c1 [Compound 85, 4-({3-[4-(isoquinolin-1-yl)piperazin-1-yl]propyl}amino)-7-methoxy-2H-chromen-2-one hydrochloride] | 78% | 86% | n/a (n/a = not active) | n/a (n/a = not active) |
| O=c1oc2ccccc2cc1NCCCN1CCN(c2nccc3ccccc23)CC1 [Compound 87, 3-({3-[4-(isoquinolin-1-yl)piperazin-1-yl]propyl}amino)-2H-chromen-2-one hydrochloride] | 79% | 96% | n/a (n/a = not active) | n/a (n/a = not active) |
| Cc1cccc2oc(=O)cc(NCCCN3CCN(c4nccc5ccc(F)cc45)CC3)c12 [Compound 96, 4-({3-[4-(7-fluoroisoquinolin-1-yl)piperazin-1-yl]propyl}amino)-5-methyl-2H-chromen-2-one hydrochloride] | 88% | 91% | n/a (n/a = not active) | n/a (n/a = not active) |
| Cc1c(NCCCN2CCN(c3nccc4ccc(F)cc34)CC2)c2ccccc2oc1=O [Compound 97, 4-({3-[4-(7-fluoroisoquinolin-1-yl)piperazin-1-yl]propyl}amino)-3-methyl-2H-chromen-2-one hydrochloride] | 85% | 86% | n/a (n/a = not active) | n/a (n/a = not active) |
| O=c1cc(NCCCN2CCN(c3nccc4ccc(F)cc34)CC2)c2ccc(O)cc2o1 [Compound 107, 4-({3-[4-(7-fluoroisoquinolin-1-yl)piperazin-1-yl]propyl}amino)-7-hydroxy-2H-chromen-2-one hydrochloride] | 92% | 74% | n/a (n/a = not active) | n/a (n/a = not active) |
| O=C(CN1CCC(Nc2cc(=O)oc3ccccc23)CC1)NCc1nccc2ccccc12 [Compound 118, N-(isoquinolin-1-ylmethyl)-2-{4-[(2-oxo-2H-chromen-4-yl)amino]piperidin-1-yl}acetamide] | 78% | n/a (n/a = not active) | n/a (n/a = not active) | n/a (n/a = not active) |
| O=c1cc(NCCCN2CCN(c3nccc4ccc(F)cc34)CC2)c2c(o1)CCNC2 [Compound 122, 4-({3-[4-(7-fluoroisoquinolin-1-yl)piperazin-1-yl]propyl}amino)-5,6,7,8-tetrahydro-2H-pyrano[3,2-c]pyridin-2-one hydrochloride] | 58% | n/a (n/a = not active) | n/a (n/a = not active) | n/a (n/a = not active) |
| C[N+]1(CCCc2nccc3ccccc23)CCC(Nc2cc(=O)oc3ccccc23)CC1 (stereo not drawn) [Compound 123] | 52% | n/a (n/a = not active) | n/a (n/a = not active) | n/a (n/a = not active) |
| O=C(O)C[C@@H](NC[C@@H](O)CN1CCN(c2nccc3ccc(F)cc23)CC1)c1ccccc1 [Compound 141, (3R)-3-({(2R)-3-[4-(7-fluoroisoquinolin-1-yl)piperazin-1-yl]-2-hydroxypropyl}amino)-3-phenylpropanoic acid] | n/a (n/a = not active) | 65% | n/a (n/a = not active) | n/a (n/a = not active) |
| O=C(O)C[C@@H](NC[C@H](O)CN1CCN(c2nccc3ccc(F)cc23)CC1)c1ccccc1 [Compound 142, (3R)-3-({(2S)-3-[4-(7-fluoroisoquinolin-1-yl)piperazin-1-yl]-2-hydroxypropyl}amino)-3-phenylpropanoic acid] | n/a (n/a = not active) | 52% | n/a (n/a = not active) | n/a (n/a = not active) |
| O=C(O)CC(NCCNC1CCN(c2nccc3ccc(F)cc23)CC1)C1CCCCC1 (stereo not drawn) [Compound 190, lithium 3-cyclohexyl-3-[(2-{[1-(7-fluoroisoquinolin-1-yl)piperidin-4-yl]amino}ethyl)amino]propanoate] | 61% | 73% | n/a (n/a = not active) | n/a (n/a = not active) |
